The source made the active and inactive calls. The calls are words filed in the database; no cut-off is given here.
Tests used:
[1] = target: T1, Aldo-keto reductase family 1 member C1 (Homo sapiens) (UniProt Q04828); assay: Inhibition of human recombinant GST-tagged AKR1C1 expressed in Escherichia coli BL21 at 100 uM
T1 sequence (whole entry): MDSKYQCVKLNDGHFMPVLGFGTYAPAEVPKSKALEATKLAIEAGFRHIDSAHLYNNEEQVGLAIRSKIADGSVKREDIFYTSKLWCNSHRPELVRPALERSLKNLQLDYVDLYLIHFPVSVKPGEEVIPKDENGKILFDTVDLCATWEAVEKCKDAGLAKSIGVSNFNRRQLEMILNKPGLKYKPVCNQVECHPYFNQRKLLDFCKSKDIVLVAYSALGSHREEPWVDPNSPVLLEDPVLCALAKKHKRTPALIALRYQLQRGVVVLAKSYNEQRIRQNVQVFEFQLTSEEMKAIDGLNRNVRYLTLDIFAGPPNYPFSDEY

[2] = target: T2, Aldo-keto reductase family 1 member C1 (Homo sapiens, UniProt Q04828); assay: Inhibition of human recombinant GST-tagged AKR1C1 expressed in Escherichia coli BL21
T2 sequence (Q04828 whole entry): T1 sequence (whole entry)

[3] = target: T3, Aldo-keto reductase family 1 member C3 (Homo sapiens) (UniProt P42330); assay: Inhibition of human recombinant GST-tagged AKR1C3 expressed in Escherichia coli BL21 at 100 uM
T3 sequence (whole entry): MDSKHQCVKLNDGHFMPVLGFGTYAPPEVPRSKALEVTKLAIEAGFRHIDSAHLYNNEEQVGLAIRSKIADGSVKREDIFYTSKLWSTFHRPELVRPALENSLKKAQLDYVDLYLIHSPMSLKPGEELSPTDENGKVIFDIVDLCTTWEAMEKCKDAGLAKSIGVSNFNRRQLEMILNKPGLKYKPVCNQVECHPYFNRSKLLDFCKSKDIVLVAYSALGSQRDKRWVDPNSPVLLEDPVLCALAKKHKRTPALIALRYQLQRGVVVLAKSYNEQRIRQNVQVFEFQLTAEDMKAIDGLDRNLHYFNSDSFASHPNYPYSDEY

[4] = target: T1, Aldo-keto reductase family 1 member C1 (Homo sapiens); assay: Competitive inhibition of human recombinant GST-tagged AKR1C1 expressed in Escherichia coli BL21 at 72.5 uM by Lineweaver-Burke plot analysis
[5] = target: T4, Aldo-keto reductase family 1 member C3 (Homo sapiens, UniProt P42330); assay: Inhibition of human recombinant GST-tagged AKR1C3 expressed in Escherichia coli BL21
T4 sequence (P42330 whole entry): T3 sequence (whole entry)

[6] = target: T1, Aldo-keto reductase family 1 member C1 (Homo sapiens); assay: Competitive inhibition of human recombinant GST-tagged AKR1C1 expressed in Escherichia coli BL21 at 36.2 uM by Lineweaver-Burke plot analysis
[7] = target: T1, Aldo-keto reductase family 1 member C1 (Homo sapiens); assay: Competitive inhibition of human recombinant GST-tagged AKR1C1 expressed in Escherichia coli BL21 at 17.4 uM by Lineweaver-Burke plot analysis
[8] = Solubility of the compound; type: physicochemical
[9] = target: T3, Aldo-keto reductase family 1 member C3 (Homo sapiens); assay: Inhibition of human recombinant GST-tagged AKR1C3 expressed in Escherichia coli BL21 at 50 uM
[10] = target: T1, Aldo-keto reductase family 1 member C1 (Homo sapiens); assay: Inhibition of human recombinant GST-tagged AKR1C1 expressed in Escherichia coli BL21 at 50 uM

Structure (SMILES) | inhibition [1] [%] | inhibition [3] | also measured
O=C(O)C1(c2ccccc2)CCCC1 | 53.5 | 5.8% | IC50 [2]: 72.9 µM; Ki [2]: 35.8 µM
O=C1CCC/C1=C\c1ccc(Cl)cc1 | 77.8 | 88.8% | Activity [4]: Active; IC50 [2]: 35 µM; Ki [2]: 17.2 µM; IC50 [5]: 36.7 µM; Ki [5]: 33.4 µM; Activity [6]: Active; Activity [7]: Active
O[C@@H]1CCC[C@H]1Nc1ccccc1 (relative stereo) | 14.7 | inactive | –
Cc1ccc(S(=O)(=O)N2C3CCCC32)cc1 (stereo unspecified) | 2.1 | 2.7% | –
Cc1ccc(S(=O)(=O)N[C@@H]2CCC[C@H]2C(N)=O)cc1 (relative stereo) | 12.9 | inactive | –
Cc1ccc(S(=O)(=O)N[C@@H]2CCC[C@H]2C#N)cc1 (relative stereo) | 15.9 | inactive | –
Cc1ccc(S(=O)(=O)N[C@@H]2CCC[C@H]2C(=O)O)cc1 (relative stereo) | 26.1 | inactive | –
OC1C(Cc2ccccc2)CCC1Cc1ccccc1 (stereo unspecified) | – | – | solubility [8]: Insoluble; inhibition [9]: 46.6%; inhibition [10]: 11.5%
O[C@H]1CCC[C@H]1Cc1ccccc1 (relative stereo) | 9.7 | inactive | –
O[C@@H]1CCC[C@H]1Cc1ccccc1 (relative stereo) | 13.8 | inactive | –
OC1CCCC1(Cc1ccccc1)Cc1ccccc1 (stereo unspecified) | – | – | solubility [8]: Insoluble; inhibition [9]: 67.3%; inhibition [10]: 15.9%
O=C(O)C1CCC(c2ccccc2)C1 (stereo unspecified) | 55.4 | 52.7% | IC50 [2]: 98.6 µM; Ki [2]: 48.5 µM; IC50 [5]: 76.6 µM; Ki [5]: 69.6 µM
COC1CCC/C1=C\c1ccc(Cl)cc1 (stereo unspecified) | 40.1 | 87.4% | IC50 [5]: 17.8 µM; Ki [5]: 16.2 µM
Cc1ccc(S(=O)(=O)N[C@@H]2CCC[C@H]2Br)cc1 (relative stereo) | 20.3 | 9.2% | –
CCOC1CCC/C1=C\c1ccc(Cl)cc1 (stereo unspecified) | 52.9 | 83.9% | IC50 [2]: 62.1 µM; Ki [2]: 30.5 µM; IC50 [5]: 22.5 µM; Ki [5]: 20.5 µM

— ChEMBL document CHEMBL1158398, “New cyclopentane derivatives as inhibitors of steroid metabolizing enzymes AKR1C1 and AKR1C3” (Eur J Med Chem, 2009)
